According to patent US12054469B2, “Benzothiophene-based selective estrogen receptor downregulator compounds” (The Board of Trustees of the University of Illinois, priority 2015, dated 2024):
pIC50: −log10 of the molar value.

Legend:
MCF-7:WS8 cells = assay: Cell viability of MCF7:WS8, DNA content assay; type: cell-based, human
MCF-7:TAM1 tumors = assay: MCF-7:TAM1 xenograft model of endocrine-resistant ER+ breast cancer; type: in vivo, mice; settings: 100 mg/kg, oral gavage daily
estrogen receptor = estrogen receptor (Homo sapiens (Human), UniProt P03372); assay: Western blot analysis of estrogen receptor downregulation; type: cell-based; settings: 10 nM
estrogen receptor, sequence (P03372 whole entry): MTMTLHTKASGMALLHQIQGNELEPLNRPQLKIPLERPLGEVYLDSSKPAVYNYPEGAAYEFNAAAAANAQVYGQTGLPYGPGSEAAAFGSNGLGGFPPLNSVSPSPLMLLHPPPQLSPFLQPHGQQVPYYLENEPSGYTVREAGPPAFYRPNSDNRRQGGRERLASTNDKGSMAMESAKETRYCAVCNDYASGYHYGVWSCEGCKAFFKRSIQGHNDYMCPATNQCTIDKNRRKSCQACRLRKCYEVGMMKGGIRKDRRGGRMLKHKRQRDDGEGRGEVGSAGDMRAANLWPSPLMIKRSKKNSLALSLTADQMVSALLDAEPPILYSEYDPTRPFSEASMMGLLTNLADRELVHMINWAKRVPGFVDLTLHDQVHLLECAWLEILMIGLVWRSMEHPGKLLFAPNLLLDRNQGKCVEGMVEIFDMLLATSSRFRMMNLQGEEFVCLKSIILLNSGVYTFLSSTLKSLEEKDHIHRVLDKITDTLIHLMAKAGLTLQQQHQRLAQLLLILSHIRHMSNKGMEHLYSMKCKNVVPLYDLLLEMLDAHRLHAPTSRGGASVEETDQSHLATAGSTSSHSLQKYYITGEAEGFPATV
Description: Whole-cell extracts of cultured cells were prepared in lysis buffer (200 mmol/L Tris, 1% Triton X-100, 5 mmol/L EDTA) with protease and phosphatase inhibitor cocktails (1:50, both from Sigma-Aldrich) after scraping from the culture plates. Protein concentration was measured using the Bradford method (Bio-Rad). Proteins were separated under denaturing conditions and blotted onto nitrocellulose membrane (Bio-Rad) using a wet transfer system (Bio-Rad). Images of blots were acquired on a Bio-Rad ChemiDoc System following incubation with SuperSignal West Dura luminol solution (Thermo Fisher Scientific).

ERα = ERα (Homo sapiens (Human), UniProt P03372); assay: In-cell western (ICW) ER downregulation/degradation in MCF-7:WS8 cells; type: cell-based; settings: Table 2; read-out: IC50 of ER downregulation from in-cell western blot experiments
ERα, sequence (P03372 whole entry): as above

SMILES | MCF-7WS8 IC50 (MCF-7:WS8 cells) | Estrogen receptor downregulation (western blot) (estrogen receptor) | further results
O=C(O)/C=C/c1ccc(Oc2c(C(=O)c3ccc(O)cc3)sc3cc(O)ccc23)cc1 [Compound 2, (E)-3-(4-((6-Hydroxy-2-(4-hydroxybenzoyl)benzo[b]thiophen-3-yl)oxy)phenyl) acrylic acid] | No Inhiibition |  | 
CC/C(=C(\c1ccccc1)c1ccc(OCCN(C)C)cc1)c1ccccc1 [Tamoxifen, tamoxifen] |  |  | Effect on tumor (MCF-7:TAM1 tumors): entirely without effect
Cc1ccccc1C(=O)c1sc2cc(O)ccc2c1Oc1ccc(/C=C/C(=O)O)cc1 [Compound 5, (E)-3-(4-((6-Hydroxy-2-(2-methylbenzoyl)benzo[b]thiophen-3-yl)oxy)phenyl) acrylic acid] |  | downregulate the estrogen receptor | 
Cc1ccc(C(=O)c2sc3cc(O)ccc3c2Oc2ccc(NC(=O)C(=O)O)cc2)c(C)c1 [Compound 19, 2-((4-((2-(2,4-Dimethylbenzoyl)-6-hydroxybenzo[b]thiophen-3-yl)oxy)phenyl)amino)-2-oxoacetic acid] | No inhibition |  | 
Cc1ccsc1C(=O)c1sc2cc(O)ccc2c1Oc1ccc(/C=C/C(=O)O)cc1 [Compound 7, (E)-3-(4-((6-Hydroxy-2-(3-methylthiophene-2-carbonyl)benzo[b]thiophen-3-yl)oxy)phenyl) acrylic acid] |  | downregulate the estrogen receptor | pIC50 (ERα): 8.34
CCc1ccccc1C(=O)c1sc2cc(O)ccc2c1Oc1ccc(/C=C/C(=O)O)cc1 [Compound 3, (E)-3-(4-((2-(2-Ethylbenzoyl)-6-hydroxybenzo[b]thiophen-3-yl)oxy)phenyl) acrylic acid] |  | downregulate the estrogen receptor | 
Cc1cc(F)ccc1C(=O)c1sc2cc(O)ccc2c1Oc1ccc(/C=C/C(=O)O)cc1 [Compound 1, (E)-3-(4-((2-(4-Fluoro-2-methylbenzoyl)-6-hydroxybenzo[b]thiophen-3-yl)oxy)phenyl)acrylic acid] |  | downregulate the estrogen receptor | 
Cc1cc(F)ccc1C(=O)c1sc2cc(O)ccc2c1Oc1ccc(NC(=O)C(=O)O)cc1 [Compound 18, 2-((4-((2-(4-Fluoro-2-methylbenzoyl)-6-hydroxybenzo[b]thiophen-3-yl)oxy)phenyl)amino)-2-oxoacetic acid] | No Inhibition |  | 
Cc1ccc(F)cc1C(=O)c1sc2cc(O)ccc2c1Oc1ccc(/C=C/C(=O)O)cc1 [Compound 6] |  | downregulate the estrogen receptor | 
